Reference: PMC7534374 (Journal of Enzyme Inhibition and Medicinal Chemistry, 2020)

Tests used:
[1] = target: T1, yeast glutathione reductase (yGR) (Saccharomyces cerevisiae, UniProt P41921); test: LC-MS/MS of covalent adduct; type: biochemical; conditions: read-out: Ki
T1 sequence (P41921 1-483): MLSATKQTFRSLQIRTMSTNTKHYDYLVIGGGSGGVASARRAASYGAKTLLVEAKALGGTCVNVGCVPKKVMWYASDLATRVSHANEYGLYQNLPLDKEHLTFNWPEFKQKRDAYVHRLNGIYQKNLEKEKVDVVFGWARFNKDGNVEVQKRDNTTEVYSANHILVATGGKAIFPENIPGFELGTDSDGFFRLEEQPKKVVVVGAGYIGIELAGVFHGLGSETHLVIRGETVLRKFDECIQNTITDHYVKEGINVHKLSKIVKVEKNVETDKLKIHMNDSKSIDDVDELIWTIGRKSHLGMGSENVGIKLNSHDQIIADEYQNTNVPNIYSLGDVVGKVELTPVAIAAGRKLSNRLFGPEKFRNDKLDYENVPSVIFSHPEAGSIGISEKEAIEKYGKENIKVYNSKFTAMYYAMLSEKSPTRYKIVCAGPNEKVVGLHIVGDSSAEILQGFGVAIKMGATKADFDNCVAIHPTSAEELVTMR

[2] = target: T2, human glutathione reductase (hGR) (Homo sapiens, UniProt P00390); test: GR activity assay; type: biochemical
T2 sequence (P00390 44-522): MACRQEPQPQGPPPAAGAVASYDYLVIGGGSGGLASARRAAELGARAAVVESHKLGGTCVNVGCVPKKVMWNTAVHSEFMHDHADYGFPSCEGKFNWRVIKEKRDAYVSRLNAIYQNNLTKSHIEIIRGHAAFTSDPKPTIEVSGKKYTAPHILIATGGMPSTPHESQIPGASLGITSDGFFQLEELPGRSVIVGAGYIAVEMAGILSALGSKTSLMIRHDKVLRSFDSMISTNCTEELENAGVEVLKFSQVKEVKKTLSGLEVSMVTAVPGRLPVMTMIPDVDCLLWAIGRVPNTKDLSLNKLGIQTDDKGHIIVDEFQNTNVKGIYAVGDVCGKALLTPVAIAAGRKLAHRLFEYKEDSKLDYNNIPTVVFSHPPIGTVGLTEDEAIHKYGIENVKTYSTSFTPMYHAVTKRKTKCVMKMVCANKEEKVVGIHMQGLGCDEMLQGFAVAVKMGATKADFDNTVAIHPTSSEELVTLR

SMILES | KI (inactivation) [1] [µM] | GR activity assay (NADPH consumption at 340 nm) [2]
S=C=NCc1ccccc1 [BITC, Benzyl isothiocyanate] | 260 | BITC exerted comparable inhibitory effect against both of yeast and human GRs
S=C=NCCc1ccccc1 [PEITC, Phenethyl isothiocyanate] | – | both of BITC and PEITC inhibited yeast or human GR in a concentration-dependent manner
